Measured values taken from patent US12036312B2, “Non-aqueous topical compositions comprising a halogenated salicylanilide” (priority 2016, dated 2024).
≈ marks a conversion by molar mass, not a printed value. Where “and” joins values, the source holds several entries; their conditions need not be identical. Equal entries are not always repeated.

Key:
[1] = test system: MRSA 01, MRSA 15 (fusidic acid-resistant), MRSA 16 (mupirocin-resistant); experiment: Mutational frequency evaluation (spontaneous single-step mutations), Example 1; format: cell-based, Staphylococcus aureus; conditions: at MIC×1 (Example 1)
S. aureus [2] = experiment: MIC assay according to CLSI criteria, Example 2, S. aureus strains; format: cell-based, Staphylococcus aureus; conditions: Staphylococcus aureus, read-out: MIC
Text: Chosen for its relevance regarding bacterial skin infections, the methicillin-resistant S. aureus (MRSA) 01 strain was used as the primary test microorganism. This strain is a community-acquired MRSA clinical isolate of USA 300 type, from a skin abscess.
Two-hundred-four other MRSA and methicillin-sensitive S. aureus strains, and 4 Streptococcus pyogenes strains, were also included in the study. These covered fusidic acid- and mupirocin-resistant strains, these two types of resistance being of clinical relevance.
Strains were conserved in Luria Bertani (LB) Broth (S. aureus) or Brain Heart Infusion (BHI) (S. pyogenes) supplemented with glycerol 15% (v/v) at −80° C., and reactivated by isolation on LB (S. aureus) or BHI (S. pyogenes) agar plates. Strains were cultivated in Mueller Hinton (MH) Broth-cation adjusted (S. aureus) or BHI (S. pyogenes). All strains were cultivated aerobically (microaerobically for S. pyogenes strains) at 37° C.
(§1) Bacterial cultures were stopped in their exponential growth phase and plates were inoculated with the approximate concentration of 5×10^5 cells per well. Plates were incubated at 37° C. for 18 hours (S. aureus) or 24 hours (S. pyogenes). Optical density at a wavelength of 600 nm was measured at the end of the incubation time.

[3] = published literature values; cited from earlier work
S. aureus [4] = experiment: Minimum inhibitory concentration (MIC) assay, Example 1, S. aureus strains; format: cell-based; conditions: Staphylococcus aureus, MRSA, read-out: Mic100 S. aureus
Text: The methicillin-resistant S. aureus (MRSA) 01 strain was used as the primary test microorganism as a representative bacteria commonly found in skin infections. This strain is a community-acquired MRSA clinical isolate of USA 300 type, from a skin abscess.
(§2) Twenty-one other MRSA and methicillin-sensitive S. aureus strains, and 4 Streptococcus pyogenes strains, were also included in the study (Table 2). These covered fusidic acid- and mupirocin-resistant strains, these two types of resistance being of clinical relevance.
(§3) Strains were conserved in Luria Bertani (LB) Broth (S. aureus) or Brain Heart Infusion (BHI) (S. pyogenes) supplemented with glycerol 15% (v/v) at −80° C., and reactivated by isolation on LB (S. aureus) or BHI (S. pyogenes) agar plates. Strains were cultivated in Mueller Hinton (MH) Broth-cation adjusted (S. aureus) supplemented with lysed horse blood 2.5% (v/v) (S. pyogenes). All strains were cultivated at 37° C., aerobically for S. aureus strains.
as §1, with “10^3” for “5×10^5”, “time. […] Experiments were performed at least as triplicate biological replicates with all strains.” for “time.”

S. pyogenes = experiment: Minimum inhibitory concentration (MIC) assay, Example 1, S. pyogenes strains; format: cell-based; conditions: Streptococcus pyogenes, read-out: Mic100 S. pyogenes
Experimental: as §2, §3
as §1, with “10^3” for “5×10^5”, “time. […] Experiments were performed at least as triplicate biological replicates with all strains.” for “time.”

With `Cc1cc(C(C#N)c2ccc(Cl)cc2)c(Cl)cc1NC(=O)c1cc(I)cc(I)c1O` (stereo not drawn) [Closantel, closantel] the mutational frequency [1] was 2×10^−8.
`C/C(=C\C(=O)OCCCCCCCCC(=O)O)C[C@@H]1OC[C@H](C[C@@H]2O[C@H]2[C@@H](C)[C@H](C)O)[C@@H](O)[C@H]1O` [Mupirocin, mupirocin] showed an MIC (S. aureus [2]; MRSA, strain MRSA 01) of 0.25 µg/mL (≈ 0.499 µM), an MIC (S. aureus [2]; MRSA, strain MRSA 02) of 0.25 µg/mL (≈ 0.499 µM) and an MIC (S. aureus [2]; MRSA, strain MRSA 03) of 0.25 µg/mL (≈ 0.499 µM). The MIC (S. aureus [2]; MRSA, strain MRSA 04) was 0.25 µg/mL (≈ 0.499 µM), the MIC (S. aureus [2]; MRSA, strain MRSA 05) was 0.125 µg/mL (≈ 0.25 µM) and the MIC (S. aureus [2]; MRSA, strain MRSA 06) was 0.25 µg/mL (≈ 0.499 µM). It also gave an MIC (S. aureus [2]; MRSA, strain MRSA 07) of 0.25 µg/mL (≈ 0.499 µM), an MIC (S. aureus [2]; MRSA, strain MRSA 09) of 0.25 µg/mL (≈ 0.499 µM) and an MIC (S. aureus [2]; MRSA, strain MRSA 10) of 0.25 µg/mL (≈ 0.499 µM). For the same compound, the MIC (S. aureus [2]; MRSA, strain MRSA 11) was 0.5 µg/mL (≈ 0.999 µM), the MIC (S. aureus [2]; MRSA, strain MRSA 12) was 0.125 µg/mL (≈ 0.25 µM) and the MIC (S. aureus [2]; MRSA, strain MRSA 13) was 0.25 µg/mL (≈ 0.499 µM). For the same compound, the MIC (S. aureus [2]; MRSA, strain MRSA 14) was 0.125 µg/mL (≈ 0.25 µM), the MIC (S. aureus [2]; MRSA, strain MRSA 15) was 0.25 µg/mL (≈ 0.499 µM) and the MIC (S. aureus [2]; MRSA, strain MRSA 18) was 0.125 µg/mL (≈ 0.25 µM). The MIC (S. aureus [2]; MRSA, strain MRSA 19) was 0.25 µg/mL (≈ 0.499 µM), the MIC (S. aureus [2]; MRSA, strain MRSA 20) was 0.25 µg/mL (≈ 0.499 µM) and the MIC (S. aureus [2]; MRSA, strain MRSA 22) was 0.25 µg/mL (≈ 0.499 µM). For the same compound, the MIC (S. aureus [2]; MRSA, strain MRSA 23) was 0.25 µg/mL (≈ 0.499 µM), the MIC (S. aureus [2]; MRSA, strain MRSA 24) was 0.25 µg/mL (≈ 0.499 µM) and the MIC (S. aureus [2]; MRSA, strain MRSA 25) was 0.25 µg/mL (≈ 0.499 µM). The MIC (S. aureus [2]; MRSA, strain MRSA 26) was 0.5 µg/mL (≈ 0.999 µM), the MIC (S. aureus [2]; MRSA, strain MRSA 27) was 0.25 µg/mL (≈ 0.499 µM) and the MIC (S. aureus [2]; MRSA, strain MRSA 28) was 0.5 µg/mL (≈ 0.999 µM). The MIC (S. aureus [2]; MRSA, strain MRSA 29) was 0.25 µg/mL (≈ 0.499 µM), the MIC (S. aureus [2]; MRSA, strain MRSA 31) was 0.25 µg/mL (≈ 0.499 µM) and the MIC (S. aureus [2]; MRSA, strain MRSA 32) was 0.25 µg/mL (≈ 0.499 µM). It also gave an MIC (S. aureus [2]; MRSA, strain MRSA 33) of 0.25 µg/mL (≈ 0.499 µM), an MIC (S. aureus [2]; MRSA, strain MRSA 34) of 0.25 µg/mL (≈ 0.499 µM) and an MIC (S. aureus [2]; MRSA, strain MRSA 35) of 0.5 µg/mL (≈ 0.999 µM). The MIC (S. aureus [2]; MRSA, strain MRSA 36) was 0.25 µg/mL (≈ 0.499 µM), the MIC (S. aureus [2]; MRSA, strain MRSA 37) was 0.25 µg/mL (≈ 0.499 µM) and the MIC (S. aureus [2]; MRSA, strain MRSA 39) was 0.25 µg/mL (≈ 0.499 µM). The MIC (S. aureus [2]; MRSA, strain MRSA 40) was 0.25 µg/mL (≈ 0.499 µM), the MIC (S. aureus [2]; MRSA, strain MRSA 75) was 0.5 µg/mL (≈ 0.999 µM) and the MIC (S. aureus [2]; MRSA, strain MRSA 85) was 0.25 µg/mL (≈ 0.499 µM). The MIC (S. aureus [2]; MRSA, strain MRSA 86) was 0.25 µg/mL (≈ 0.499 µM), the MIC (S. aureus [2]; MRSA, strain MRSA 87) was 0.25 µg/mL (≈ 0.499 µM) and the MIC (S. aureus [2]; MRSA, strain MRSA 88) was 0.25 µg/mL (≈ 0.499 µM). It also gave an MIC (S. aureus [2]; MRSA, strain MRSA 89) of 0.25 µg/mL (≈ 0.499 µM), an MIC (S. aureus [2]; MRSA, strain MRSA 90) of 0.25 µg/mL (≈ 0.499 µM) and an MIC (S. aureus [2]; MRSA, strain MRSA 91) of 0.25 µg/mL (≈ 0.499 µM). The MIC (S. aureus [2]; MRSA, strain MRSA 92) was 0.25 µg/mL (≈ 0.499 µM), the MIC (S. aureus [2]; MRSA, strain MRSA 93) was 0.25 µg/mL (≈ 0.499 µM) and the MIC (S. aureus [2]; MRSA, strain MRSA 94) was 0.25 µg/mL (≈ 0.499 µM). The MIC (S. aureus [2]; MRSA, strain MRSA 95) was 0.25 µg/mL (≈ 0.499 µM), the MIC (S. aureus [2]; MRSA, strain MRSA 96) was 0.125 µg/mL (≈ 0.25 µM) and the MIC (S. aureus [2]; MRSA, strain MRSA 97) was 0.25 µg/mL (≈ 0.499 µM). The MIC (S. aureus [2]; MRSA, strain MRSA 98) was 0.5 µg/mL (≈ 0.999 µM), the MIC (S. aureus [2]; MRSA, strain MRSA 99) was 0.5 µg/mL (≈ 0.999 µM) and the MIC (S. aureus [2]; MRSA, strain MRSA 100) was 0.5 µg/mL (≈ 0.999 µM). It also gave an MIC (S. aureus [2]; MRSA, strain MRSA 101) of 0.25 µg/mL (≈ 0.499 µM), an MIC (S. aureus [2]; MRSA, strain MRSA 102) of 0.25 µg/mL (≈ 0.499 µM) and an MIC (S. aureus [2]; MRSA, strain MRSA 103) of 0.25 µg/mL (≈ 0.499 µM). It also gave an MIC (S. aureus [2]; MRSA, strain MRSA 104) of 0.25 µg/mL (≈ 0.499 µM), an MIC (S. aureus [2]; MRSA, strain MRSA 105) of 0.25 µg/mL (≈ 0.499 µM) and an MIC (S. aureus [2]; MRSA, strain MRSA 106) of 0.25 µg/mL (≈ 0.499 µM). The MIC (S. aureus [2]; MRSA, strain MRSA 107) was 0.25 µg/mL (≈ 0.499 µM), the MIC (S. aureus [2]; MRSA, strain MRSA 108) was 0.25 µg/mL (≈ 0.499 µM) and the MIC (S. aureus [2]; MRSA, strain MRSA 109) was 0.25 µg/mL (≈ 0.499 µM). It also gave an MIC (S. aureus [2]; MRSA, strain MRSA 110) of 0.125 µg/mL (≈ 0.25 µM), an MIC (S. aureus [2]; MRSA, strain MRSA 111) of 0.25 µg/mL (≈ 0.499 µM) and an MIC (S. aureus [2]; MRSA, strain MRSA 112) of 0.25 µg/mL (≈ 0.499 µM). It also gave an MIC (S. aureus [2]; MRSA, strain MRSA 113) of 0.25 µg/mL (≈ 0.499 µM), an MIC (S. aureus [2]; MSSA, strain MSSA 01) of 0.125 µg/mL (≈ 0.25 µM) and an MIC (S. aureus [2]; MSSA, strain MSSA 02) of 0.125 µg/mL (≈ 0.25 µM). The MIC (S. aureus [2]; NEWMAN, strain Newman) was 0.25 µg/mL (≈ 0.499 µM).
For `O=C(Nc1cc(Cl)cc(Cl)c1O)c1c(O)c(Cl)cc(Cl)c1Cl` [Oxyclozanide, oxyclozanide], the LD50 rats p.o [3] is given as 980 to 3500 mg/kg.
In the case of `O=C(Nc1ccc(Oc2ccc(Cl)cc2)c(Cl)c1)c1cc(I)cc(I)c1O` [Rafoxanide, rafoxanide], the MIC (S. aureus [4]) is reported as 0.8 µg/mL and 1.25 µM, the MIC (S. pyogenes) is reported as 6.4 µg/mL and 10 µM and the mutational frequency [1] is reported as 5×10^−9.
